One assay concerns A549. Put plainly: Cytotoxicity in human A549 cells by sulforhodamine B colorimetric assay. It is filed as functional, cell-based.
The subject of a further assay is HCT-116. Put plainly: Cytotoxicity in human HCT-116 cells by sulforhodamine B colorimetric assay. It is filed as functional, cell-based. Background: Sulforhodamine B stains cellular protein and so reports cell mass.
Another assay concerns K562. Kind of assay: Cytotoxicity in human K562 cells by sulforhodamine B colorimetric assay. It is filed as functional, cell-based.
Another assay has as its system MDA-MB-231. Put plainly: Cytotoxicity in human MDA-MB-231 cells by sulforhodamine B colorimetric assay. It is filed as functional, cell-based.
The next assay has as its system SK-HEP1. Put plainly: Cytotoxicity in human SK-HEP1 cells by sulforhodamine B colorimetric assay. It is filed as functional, cell-based.
The subject of a further assay is SNU-638. Kind of assay: Cytotoxicity in human SNU-638 cells by sulforhodamine B colorimetric assay. It is filed as functional, cell-based.
For assay [1], the target named is T1, Leucine--tRNA ligase, cytoplasmic (Homo sapiens, UniProt Q9P2J5). Kind of assay: Inhibition of catalytic activity of LRS (unknown origin) by aminoleucylation assay.
Target sequence in this assay (Q9P2J5 whole entry): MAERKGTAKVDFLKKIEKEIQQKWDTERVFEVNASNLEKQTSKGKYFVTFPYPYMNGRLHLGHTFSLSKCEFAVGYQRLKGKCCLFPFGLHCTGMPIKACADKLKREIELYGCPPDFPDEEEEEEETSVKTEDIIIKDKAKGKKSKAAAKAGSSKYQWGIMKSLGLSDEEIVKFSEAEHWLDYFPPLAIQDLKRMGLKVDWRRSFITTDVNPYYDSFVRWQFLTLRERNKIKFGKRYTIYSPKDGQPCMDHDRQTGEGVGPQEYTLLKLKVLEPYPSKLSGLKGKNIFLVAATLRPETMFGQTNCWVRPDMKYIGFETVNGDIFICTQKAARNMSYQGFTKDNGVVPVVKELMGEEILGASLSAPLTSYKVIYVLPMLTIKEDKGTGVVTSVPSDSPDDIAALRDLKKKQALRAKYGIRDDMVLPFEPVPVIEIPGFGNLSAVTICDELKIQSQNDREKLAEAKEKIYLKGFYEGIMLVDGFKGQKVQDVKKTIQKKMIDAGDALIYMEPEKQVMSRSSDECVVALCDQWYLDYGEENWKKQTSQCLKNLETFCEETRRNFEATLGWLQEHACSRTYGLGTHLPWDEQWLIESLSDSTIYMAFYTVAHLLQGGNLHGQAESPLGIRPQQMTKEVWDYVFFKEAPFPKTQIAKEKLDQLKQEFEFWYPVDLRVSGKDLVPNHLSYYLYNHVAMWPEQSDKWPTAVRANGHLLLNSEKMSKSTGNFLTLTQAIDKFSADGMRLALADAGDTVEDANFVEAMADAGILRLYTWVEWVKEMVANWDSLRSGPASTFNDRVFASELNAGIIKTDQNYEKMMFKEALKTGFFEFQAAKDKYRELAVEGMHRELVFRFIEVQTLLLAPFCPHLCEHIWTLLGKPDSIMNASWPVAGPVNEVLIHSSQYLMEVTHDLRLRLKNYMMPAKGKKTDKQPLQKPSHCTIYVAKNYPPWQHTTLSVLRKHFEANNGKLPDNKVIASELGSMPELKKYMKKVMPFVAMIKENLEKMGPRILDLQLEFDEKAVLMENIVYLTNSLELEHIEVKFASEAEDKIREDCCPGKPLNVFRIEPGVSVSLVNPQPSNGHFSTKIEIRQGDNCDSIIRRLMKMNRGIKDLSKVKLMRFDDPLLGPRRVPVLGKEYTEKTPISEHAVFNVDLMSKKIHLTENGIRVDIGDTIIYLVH
In assay [2] the target is T1, Leucine--tRNA ligase, cytoplasmic. Put plainly: Inhibition of catalytic activity of LRS in HEK293 cells assessed as reduction in mTORC1 activation by measuring leucine-induced S6K phosphorylation at 12.5 to 200 uM by immunoblotting analysis. It is filed as cell-based. To be noted: dose 12.5-200 µM. A general note: Immunoblotting shows a protein as a band on a membrane.
Target sequence in this assay (Q9P2J5 whole entry, looked up): as the sequence (Q9P2J5 whole entry) above

The target in assay [3] is T2, mTORC1 (Homo sapiens) (UniProt P42345+Q8N122+Q9BVC4). Put plainly: Inhibition of flag-tagged mTORC1 (unknown origin) at 200 uM. It is filed as protein-complex assay.
T2 sequence (Q8N122 whole entry, looked up, other chains not shown): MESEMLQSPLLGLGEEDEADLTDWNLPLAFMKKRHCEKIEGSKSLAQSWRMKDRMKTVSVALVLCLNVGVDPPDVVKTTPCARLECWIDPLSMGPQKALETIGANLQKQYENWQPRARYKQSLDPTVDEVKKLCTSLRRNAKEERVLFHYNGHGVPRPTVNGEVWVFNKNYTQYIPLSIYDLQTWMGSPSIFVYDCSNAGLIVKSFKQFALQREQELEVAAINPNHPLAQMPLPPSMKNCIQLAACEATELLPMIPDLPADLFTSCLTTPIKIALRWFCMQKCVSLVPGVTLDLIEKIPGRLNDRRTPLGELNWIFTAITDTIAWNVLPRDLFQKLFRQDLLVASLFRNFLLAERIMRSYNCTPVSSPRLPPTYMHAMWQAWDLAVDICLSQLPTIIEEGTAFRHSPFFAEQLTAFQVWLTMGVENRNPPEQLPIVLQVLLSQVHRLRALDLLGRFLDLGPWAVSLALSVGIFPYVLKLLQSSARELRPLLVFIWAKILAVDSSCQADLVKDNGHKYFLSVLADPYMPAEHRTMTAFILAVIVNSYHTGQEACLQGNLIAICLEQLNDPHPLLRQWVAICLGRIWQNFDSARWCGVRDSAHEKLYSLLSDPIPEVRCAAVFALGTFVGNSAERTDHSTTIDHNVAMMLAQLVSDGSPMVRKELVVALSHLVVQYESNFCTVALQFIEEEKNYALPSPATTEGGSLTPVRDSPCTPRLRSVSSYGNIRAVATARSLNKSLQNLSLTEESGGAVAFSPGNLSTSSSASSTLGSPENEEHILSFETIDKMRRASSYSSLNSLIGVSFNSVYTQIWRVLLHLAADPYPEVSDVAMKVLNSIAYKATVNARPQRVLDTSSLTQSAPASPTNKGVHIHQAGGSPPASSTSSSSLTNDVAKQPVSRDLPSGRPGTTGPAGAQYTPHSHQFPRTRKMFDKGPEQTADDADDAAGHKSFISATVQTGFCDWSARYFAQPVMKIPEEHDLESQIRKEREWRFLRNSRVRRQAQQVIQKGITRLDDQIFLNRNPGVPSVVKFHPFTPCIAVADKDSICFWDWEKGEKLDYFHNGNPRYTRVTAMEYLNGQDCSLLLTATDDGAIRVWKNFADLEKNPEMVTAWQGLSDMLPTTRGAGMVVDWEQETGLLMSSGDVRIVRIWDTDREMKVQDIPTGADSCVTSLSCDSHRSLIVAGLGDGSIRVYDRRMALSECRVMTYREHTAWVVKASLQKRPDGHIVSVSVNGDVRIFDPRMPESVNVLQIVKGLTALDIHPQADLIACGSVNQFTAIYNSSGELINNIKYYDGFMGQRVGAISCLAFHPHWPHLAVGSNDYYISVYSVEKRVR
T2 sequence (Q9BVC4 whole entry, looked up, other chains not shown): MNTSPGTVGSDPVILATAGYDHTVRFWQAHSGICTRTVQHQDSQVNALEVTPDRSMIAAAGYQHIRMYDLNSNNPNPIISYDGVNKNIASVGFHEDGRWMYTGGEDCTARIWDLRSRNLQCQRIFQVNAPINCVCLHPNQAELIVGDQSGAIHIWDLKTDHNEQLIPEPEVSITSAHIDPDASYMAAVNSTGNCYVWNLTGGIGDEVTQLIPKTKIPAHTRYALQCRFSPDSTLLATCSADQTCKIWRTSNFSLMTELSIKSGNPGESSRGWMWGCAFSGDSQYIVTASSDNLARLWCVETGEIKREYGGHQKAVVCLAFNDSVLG
The test system of another assay is MRC5. Put plainly: Cytotoxicity in human MRC5 cells by sulforhodamine B colorimetric assay. It is filed as cell-based.
Assay [4] addresses T2, mTORC1 (Homo sapiens). As to conditions: HEK293, dose 100.0 nM.
Description: Inhibition of mTORC1 activation in HEK293 cells assessed as reduction leucine-induced S6K phosphorylation at 100 nM by immunoblotting analysis

Active and inactive are the calls of the source. The calls are words filed in the database; no cut-off is given here. Bounds are passed on as bounds.

Take `COc1cc([C@@H]2c3cc4c(cc3[C@@H](O[C@@H]3O[C@@H]5CO[C@@H](C)O[C@H]5[C@H](O)[C@H]3O)[C@H]3COC(=O)[C@H]23)OCO4)cc(OC)c1O` [ETOPOSIDE]: the IC50 (as a rule, the concentration that gives 50% inhibition) is 240 nM with A549; 1250 nM with HCT-116; 1790 nM in the assay on K562; 7350 nM with MDA-MB-231; 250 nM in the assay with SK-HEP1; 560 nM with SNU-638.
With `CC(C)[C@@H](O)[C@H](O)C(=O)NS(=O)(=O)OC[C@H]1O[C@@H](n2cnc3c(N)ncnc32)[C@H](O)[C@@H]1O`, the IC50 stood at 70 nM in [1]; 1640 nM in the assay with A549; 1440 nM in the assay with HCT-116; 2220 nM in the assay on K562; 7010 nM in the assay on MDA-MB-231; 6810 nM with SK-HEP1. The half-maximal inhibitory concentration (IC50) with SNU-638 was 8980 nM; in the assay on MRC5, above 50000 nM. Also, the inhibition entry in assay [2] is “Dose-dependent effect”. Besides, at mTORC1 (Homo sapiens) [3], the inhibition entry is “inactive”.
With `CC(C)C[C@H](O)C(=O)NS(=O)(=O)OC[C@H]1O[C@@H](n2cnc3c(N)nc(I)nc32)[C@H](O)[C@@H]1O`, the IC50 in assay [1] was found to be 337 nM; with A549, 1750 nM; with HCT-116, 540 nM; in the assay with K562, 1060 nM; in the assay on MDA-MB-231, 12600 nM; in the assay on SK-HEP1, 5630 nM. In addition, the IC50 in the assay on SNU-638 was 5700 nM; in the assay with MRC5, above 50000 nM. Also, in assay [2], the inhibition entry is “Dose-dependent effect”. Moreover, on mTORC1 (Homo sapiens) [3], the inhibition result was “inactive”.
In the case of `CO[C@H]1C[C@@H]2CC[C@@H](C)[C@@](O)(O2)C(=O)C(=O)N2CCCC[C@H]2C(=O)O[C@H]([C@H](C)C[C@@H]2CC[C@@H](O)[C@H](OC)C2)CC(=O)[C@H](C)/C=C(\C)[C@@H](O)[C@@H](OC)C(=O)[C@H](C)C[C@H](C)/C=C/C=C/C=C/1C`, at mTORC1 (Homo sapiens) [4], the inhibition entry was “Active”.
Regarding `CC(C)C[C@H](N)C(=O)NS(=O)(=O)OC[C@H]1O[C@@H](n2cnc3c(N)ncnc32)[C@H](O)[C@@H]1O` [LEUSA], the IC50 in [1] came to 22.3 nM; with A549, 590 nM; with HCT-116, 240 nM; in the assay on K562, 400 nM; with MDA-MB-231 it was 730 nM; with SK-HEP1, 540 nM. For the same molecule, the IC50 worked out at 840 nM in the assay with SNU-638 and 5900 nM in the assay on MRC5. Besides, the inhibition entry in assay [2] is “inactive”.
